As a reminder, the IC50 is the concentration that gives 50% inhibition. For orientation: EC50 means the concentration needed to bring the measured effect to its halfway point.

Read-outs that look alike come from different tables or passages of the source.

This is an account of results in paper PMC8167039, “A Comparative Study of Human and Zebrafish Pregnane X Receptor Activities of Pesticides and Steroids Using In Vitro Reporter Gene Assays” (Frontiers in Endocrinology, 2021).

Series [1] concerns the target T1, zfPXR (Danio rerio, UniProt A5WYG8). Put plainly: HG5LN Gal4-zfPXR luciferase reporter gene assay, antagonism (coexposure with clotrimazole). Format: cell-based, zebrafish. How it is done:
(§1) The cell lines used in this study are listed in Supplementary Table 3 . The HG5LN, HG5LN Gal4-hPXR and HG5LN Gal4-zfPXR cell lines were previously described ([19]). Briefly, HeLa cells stably transfected with the GAL4RE5-βGlobin-Luc-SVNeo plasmid (HG5LN cell line) ([15]). HG5LN cells were stably transfected with the pSG5-GAL4(DBD)-hPXR(LBD)-puro or pSG5-GAL4(DBD)-zfPXR(LBD)-puro plasmids.
(§2) HG5LN cells were cultured in Dulbecco’s Modified Eagle Medium: Nutrient Mixture F-12 (D-MEM/F-12) containing phenol red and 1 g/L glucose and supplemented with 5% fetal bovine serum, 100 units/mL of penicillin and 100 µg/mL of streptomycin supplemented with 1 mg/mL geneticin in a 5% CO2 humidified atmosphere at 37°C. HG5LN GAL4-hPXR and GAL4-zfPXR were cultured in the same culture medium supplemented with 0.5 µg/mL puromycin.
(§3) The ability of chemicals to modulate the hPXR and zfPXR was investigated in HG5LN, HG5LN-hPXR, HG5LN-zfPXR, and ZFL-zfPXR cell lines after exposure to serial dilutions of the compounds and measurement of luciferase activity. […] Briefly, cells were seeded in 96-well white opaque flat bottom microplates at 0.5 10^5 cells per well in culture medium. […] Cells were then exposed to a concentration range of the compounds by using an automated workstation (Biomek 3000, Beckman Coulter). The final concentration of DMSO in the well never exceeds 0.1% (v/v). After 16h of exposure, medium was removed and 50 µL of test medium containing 0.3 mM D-luciferin were added per well. After 5 min, the production of light was assessed in living cells using microplate reader (MicroBeta, PerkinElmer SAS, Courtabœuf, France).
(§4) In the transactivation assay, each compound was tested at various concentrations in three independent experiments at least. For each experiment, tests were performed in quadruplicates for each concentration, and data are expressed by means values with standard deviations. […] This allowed to determine EC50 and IC50 values of tested chemicals.
Background: In a reporter assay the amount or activity of a reporter protein is the signal.

In series [2] the target is T1, zfPXR. Put plainly: cell-based. Conditions: for zfPXR antagonism Min: ZFL-zfPXR, coexposure with 0.03 µM clotrimazole, % of maximal induced by 1 µM clotrimazole. As to the method: as §3, §4
The target in a further series is T2, hPXR (Homo sapiens, UniProt O75469).
T2 sequence (O75469 146-433 limits assumed): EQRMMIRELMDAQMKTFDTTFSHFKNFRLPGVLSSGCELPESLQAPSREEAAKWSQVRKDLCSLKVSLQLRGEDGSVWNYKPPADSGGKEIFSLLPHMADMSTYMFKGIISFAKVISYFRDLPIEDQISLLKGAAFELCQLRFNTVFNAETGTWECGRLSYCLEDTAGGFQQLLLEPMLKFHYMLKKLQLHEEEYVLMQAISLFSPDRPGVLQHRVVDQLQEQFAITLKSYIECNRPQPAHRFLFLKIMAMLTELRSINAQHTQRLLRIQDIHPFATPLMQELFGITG
Put plainly: HG5LN Gal4-hPXR luciferase reporter gene assay, agonism. As to the method:
as §1, §2, §3, §4

Series [3] addresses T1, zfPXR. Put plainly: HG5LN Gal4-zfPXR luciferase reporter gene assay, agonism. Format: cell-based, zebrafish. How it is done:
as §1, §2, §3, §4

Series [4] addresses T1, zfPXR. Put plainly: cell-based. Set-up: Emax: dose or concentration left out as unconfirmed. How it is done:
as §3, §4

The mark [5] stands for this setting: HG5LN, read-out: zfPXR antagonism Min.
The mark [6] stands for this setting: HG5LN-hPXR, maximal activity at 10 µM, % of maximal induced by 3 µM SR 12813, DMSO 19 ± 6.
Setting [7] is: read-out: zfPXR antagonism IC50.

T1 sequence (A5WYG8 entry or part of it): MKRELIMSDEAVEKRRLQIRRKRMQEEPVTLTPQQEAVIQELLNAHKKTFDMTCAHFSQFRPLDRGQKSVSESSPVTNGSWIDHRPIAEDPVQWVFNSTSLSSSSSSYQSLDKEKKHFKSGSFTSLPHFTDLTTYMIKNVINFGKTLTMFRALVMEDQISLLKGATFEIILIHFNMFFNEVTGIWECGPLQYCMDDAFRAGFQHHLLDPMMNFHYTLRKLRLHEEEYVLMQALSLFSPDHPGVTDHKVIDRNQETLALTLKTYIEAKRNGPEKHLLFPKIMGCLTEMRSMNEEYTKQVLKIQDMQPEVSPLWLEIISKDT

As for `CC1(C)[C@H](C(=O)O[C@H](C#N)c2cccc(Oc3ccccc3)c2)[C@@H]1C=C(Br)Br` [Deltamethrin], the IC50 against zfPXR [1] turned out to be 1.6 ± 0.2 µM; against zfPXR [2], 1.6 ± 0.06 µM. For the same compound, the remaining activity at 10 µM on zfPXR [1] (setting [5]) was 21%. Besides, on zfPXR [2] (minimal activity at 10 µM), the “zfPXR antagonism Min” value is 3%. Moreover, a half-maximal response on hPXR (EC50) required 1.8 ± 0.2 µM. For the same compound, the “hPXR agonism Max” value at hPXR (setting [6]) is listed as 92%.

As for `C#C[C@]1(O)CC[C@H]2[C@@H]3CCC4=CCCC[C@@H]4[C@H]3C(=C)C[C@@]21CC` [Desogestrel, reference compound], the EC50 was found to be 0.13 ± 0.01 µM at zfPXR [3] (HG5LN-zfPXR cells, 16h exposure, n.a. = not active, read-out: zfPXR agonism EC50) and 0.07 ± 0.004 µM at zfPXR [4]. Also, the “hPXR agonism Max” value at hPXR came to 54%.

For the compound `C[C@]12CCC(=O)C=C1[C@@H]1C[C@@H]1[C@H]1[C@@H]3[C@@H]4C[C@@H]4[C@@]4(CCC(=O)O4)[C@@]3(C)CC[C@@H]12` [Drospirenone, reference compound], the remaining activity at 10 µM at zfPXR [1] (setting [5]) worked out at 52%. For the same compound, the 50% inhibitory concentration (IC50) at zfPXR [1] (setting [7]) is 3.6 ± 0.4 µM. For the same compound, the “hPXR agonism Max” value at hPXR (setting [6]) amounted to 44%.

In turn, `OC(c1ccc(Cl)cc1)(c1cncnc1)c1ccccc1Cl` (centres unmarked) [Fenarimol] displayed an IC50 on zfPXR [1] of 24 ± 7.1 µM. In addition, on zfPXR [1] (setting [5]), the remaining activity at 10 µM amounted to 66%. In addition, on hPXR, the EC50 was found to be 13 ± 2.2 µM. The “hPXR agonism Max” value at hPXR (setting [6]) turned out to be 56%.

Turning to `CC#C[C@]1(O)CC[C@H]2[C@@H]3CCC4=CC(=O)CCC4=C3[C@@H](c3ccc(N(C)C)cc3)C[C@@]21C` [Mifepristone, reference compound], the IC50 on zfPXR [1] turned out to be 0.08 ± 0.003 µM; on zfPXR [2], 0.06 ± 0.004 µM. Moreover, on zfPXR [2] (compounds marked *, not tested above 3 µM), the “zfPXR antagonism Min” value is given as 5%.

The compound `CCOc1cc(Oc2ccc(C(F)(F)F)cc2Cl)ccc1[N+](=O)[O-]` [Oxyfluorfen] had a concentration for half-maximal inhibition (IC50) at zfPXR [1] of 10 ± 1.2 µM. Further, the remaining activity at 10 µM on zfPXR [1] (setting [5]) stood at 56%. At hPXR, this compound displayed a 50% effective concentration (EC50) of 3 ± 0.1 µM. Moreover, the “hPXR agonism Max” value on hPXR (setting [6]) is reported as 86%.

As for `CCC(CC)Nc1c([N+](=O)[O-])cc(C)c(C)c1[N+](=O)[O-]` [Pendimethalin], the results for the concentration giving a half-maximal response (EC50) at zfPXR [3], at zfPXR [4] and on hPXR were 0.47 ± 0.1 µM, 0.12 ± 0.01 µM and 3 ± 0.1 µM, respectively. Also, at zfPXR [4] (read-out: zfPXR agonism Max), the Emax is 92%. In addition, the “hPXR agonism Max” value on hPXR was determined as 91%.

Consider `CCCN(CCOc1c(Cl)cc(Cl)cc1Cl)C(=O)n1ccnc1` [Prochloraz], for which the IC50 on zfPXR [1] is 11 ± 5.6 µM. Besides, at hPXR, it took 1.8 ± 0.1 µM to reach a half-maximal effect (EC50) and the “hPXR agonism Max” value is reported as 71%.

On to `CC(=O)[C@H]1CC[C@H]2[C@@H]3CCC4=CC(=O)CC[C@]4(C)[C@H]3CC[C@]12C` [Progesterone, reference compound], for which the remaining activity at 10 µM on zfPXR [1] (HG5LN; read-out: zfPXR antagonism Min) came to 14%. Also, the 50% inhibitory concentration (IC50) at zfPXR [1] (setting [7]) is 0.64 ± 0.03 µM. The EC50 on hPXR worked out at 9.1 ± 2.2 µM.

The compound `CC(C)(C)C(O)(CCc1ccc(Cl)cc1)Cn1cncn1` (centres unmarked) [Tebuconazole] registered an IC50 against zfPXR [1] of 24 ± 4.3 µM. In addition, the remaining activity at 10 µM at zfPXR [1] (setting [5]) amounted to 62%. Besides, it took 6.8 ± 0.4 µM to reach a half-maximal effect on hPXR (EC50). Further, at hPXR (setting [6]), the “hPXR agonism Max” value was 71%.
